Data as given in patent publication US20210106574A1, “Methods of Treating Cancer” (Tesaro, Inc., priority 2017, published 2021).
pIC50: −log10 of the molar value. Where a name gives a salt, the structure may show the parent alone. Read-outs that look alike come from different tables or passages of the source.

Legend:
[1] = test system: cancer cell lines silenced for or carrying mutations of BRCA-1 or BRCA-2; Ewing's sarcoma, ALL, NSCLC, SCLC and ATM-inactivated tumor cell lines; conditions: cell lines silenced for BRCA-1 or BRCA-2 or carrying BRCA-1 or BRCA-2 mutations compared to wild type counterparts; cited from earlier work
HRR mutant PDX models = test system: HRR mutant PDX models
Description: The relative contribution of the loss of BRCA and non-BRCA HRR genes to PARP synthetic lethality in additional indications other than ovarian and breast was also evaluated. To this end, CRISPR/Cas9 technology was utilized to knock-out either the single or both alleles of 11 clinically-relevant HR genes in two different genetic backgrounds.

[2] = test system: HRR11 KO isogenic Dld-1 cell lines; conditions: bi-allelic mutations in BRCA1, BRCA2, PALB2 and ATM (FIG. 5)
Description: CRISPR/Cas9 technology was used to knock-out either the single or both alleles of 11 clinically-relevant HR genes in two different genetic backgrounds, using Dld-1 and HeLa cell lines. […] Compounds were added 24 h after cell seeding, and then every 3- to 4-days (2-times a week) during the incubation period (for 13-days incubation period).

[3] = test system: platinum-sensitive recurrent ovarian cancer patients
Description: Two cohorts were treated: the germline BRCA mutant positive cohort (gBRCAmut) and the non-germline BRCA cohort (non-gBRCAmut). […] Patients in this cohort were germline BRCA mutation carriers as assessed by the FDA-approved Integrated BRACAnalysis test. Patients in the non-gBRCAmut were negative in the FDA-approved Integrated BRACAnalysis test.
This objective is independently evaluated in a cohort of patients with germline BRCA mutation (gBRCAmut) and in a cohort of patients who have high grade serous or high grade predominantly serous histology but without such gBRCA mutations (non-gBRCAmut). […] Accordingly, HRD is used as a tumor biomarker classifier to be evaluated.
Study treatment was dispensed to patients on Day 1 and every cycle (28 days) thereafter until the patient discontinued study treatment. Study treatment was administered orally once daily continuously. Three capsules of 100 mg strength were taken at each dose administration. Clinic visits occurred in each cycle (every 4 weeks 3 days). Response evaluation criteria in solid tumors (RECIST) tumor assessment via computed tomography (CT) or magnetic resonance imaging (MRI) scan of abdomen/pelvis and clinically indicated areas was required at the end of every 2-cycles (8-weeks with a window of 7 days from date of visit) through Cycle 14, then at the end of every 3-cycles (12-weeks with a window of 7 days from date of visit) until progression.
Patients were assessed by the prolongation of progression-free survival (PFS). […] Response Evaluation Criteria in Solid Tumors (RECIST) was used for tumor assessment via a computed tomography (CT) or magnetic resonance imaging (MRI) scan of abdomen/pelvis and clinically indicated areas, which was required at the end of every 2-cycles (8-weeks) through cycle 14 (56-weeks), and then at the end of every 3-cycles (12-weeks) until progression.
Following completion of the NOVA study, formalin-fixed, paraffin-embedded (FFPE) archival tumor samples from NOVA patients were retrospectively analyzed using a pre-specified gene panel. […]

[4] = test system: MDA-MB-436, CAPAN-1, GRANTA-519, OVCAR3, HT29 and DLD-1, patient derived Ewing's sarcoma, and TNBC xenograft models; conditions: xenograft models in mice; cited from earlier work
PARP activity = conditions: stimulated by hydrogen peroxide, various cell lines, cited from earlier work
ovarian cancer patients = conditions: cited from earlier work
[5] = test system: patients with advanced BRCA-mutant ovarian cancer; conditions: cited from earlier work
[6] = ATM bi-allelic mutant NSCLC PDX models
[7] = 106 patients, 600 mg orally twice daily

SMILES: Cc1ccc(S(=O)(=O)O)cc1.NC(=O)c1cccc2cn(-c3ccc([C@@H]4CCCNC4)cc3)nc12 [Niraparib, (3S)-3-[4-{7-(aminocarbonyl)-2H-indazol-2-yl}phenyl]piperidine]
- anti-proliferative activity [1]: selective anti-proliferative activity
- PDX models with strong sensitivity, TGI>70% (HRR mutant PDX models; [6]): 33%
- PDX models with moderate sensitivity, TGI≥50% (HRR mutant PDX models; ATM bi-allelic mutant PDX models): 14%
- PDX models with TGI≥50% (HRR mutant PDX models; ATM monoallelic mutant PDX models): 0/6
- models sensitive with ≥50% TGI (HRR mutant PDX models; BAP bi-allelic mutations, across 5-tumor types): 36%
- PDX models with moderate sensitivity, ≥50% TGI (HRR mutant PDX models; BRCA1/2 bi-allelic mutant PDX models): 43%
- PDX models with moderate sensitivity, TGI≥50% (HRR mutant PDX models; BRCA2 bi-allelic mutant PDX models): 43%
- PDX models with >100% TGI (HRR mutant PDX models; OvCa PDX models): 80%
- PDX models with strong sensitivity (HRR mutant PDX models; PALB2 monoallelic mutant PDX models (1/6)): 17%
- niraparib sensitivity based on total growth inhibition (TGI) (HRR mutant PDX models; bi-allelic mutations in BRCA1, BRCA2, PALB2 and ATM (FIG. 4)): strongest niraparib sensitivity
- TGI (HRR mutant PDX models; sensitive PALB2 monoallelic mutant PDX model): 93%
- niraparib sensitivity based on total growth inhibition (TGI) [2]: strongest niraparib sensitivity
- Median Progression Free Survival (PFS) ([3]; Non-tBRCA1/2 HRR mutant): 15.7
- Median Progression Free Survival (PFS) ([3]; tBRCA1/2 mutant): 15.4
- effectiveness of niraparib treatment ([3]; tBRCA wildtype patients with at least one mutation in 31 DDR gene panel compared to no mutation): similarly effective
- antitumor activity [4]: strong antitumor activity
- pIC50 (PARP activity; read-out: IC50, PARP activity in cells): ~8.40
- IC90 (PARP activity; read-out: inhibitory concentration at 90% of control (IC90), PARP activity in cells): ~50 nM
- models sensitive to niraparib (NSCLC PDX models; [6]): 2 out of 8
- models sensitive to niraparib (NSCLC PDX models; HRR WT NSCLC PDX models (3 out of 40)): 7.5%

SMILES: O=C(c1cc(Cc2n[nH]c(=O)c3ccccc23)ccc1F)N1CCN(C(=O)C2CC2)CC1 [olaparib, 4-[(3-{[4-(cyclopropylcarbonyl)piperazin-1-yl]carbonyl}-4-fluorophenyl)methyl]phthalazin-1(2H)-one]
- responses (ovarian cancer patients; in 17 patients with BRCA1 or BRCA2 mutations): 7 responses
- responses (ovarian cancer patients; in the 46 who did not have these mutations): 11 responses

SMILES: CNCc1ccc(-c2[nH]c3cc(F)cc4c3c2CCNC4=O)cc1 [rucaparib, 8-fluoro-2-{4-[(methylamino)methyl]phenyl}-1,3,4,5-tetrahydro-6H-azepino[5,4,3-cd]indol-6-one ((1S,4R)-7,7-dimethyl-2-oxobicyclo[2.2.1]hept-1-yl)methanesulfonic acid salt]
- Response assessment by independent radiology review [5, 7]: 42%
- median DOR [5, 7]: 6.7 months
- Investigator-assessed ORR ([5]; platinum-refractory patients): 0%
- Investigator-assessed ORR ([5]; platinum-resistant patients): 25%
- Investigator-assessed ORR ([5]; platinum-sensitive patients): 66%
